IC50 data for eleven compounds are collected here from US11091478B2 (Fochon Pharmaceuticals, Ltd., priority 2017, dated 2021).

One assay deals with DOHH2 cells. Description: Cell proliferation assay (MTS), DOHH2 cells, 120 h. To be noted: Homo sapiens, DOHH-2, 120 h. The assay is classed as cell-based. Put shortly:
(§1)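 Cells in RPMI-1640 with 10% FBS were seeded at 5000/well, left overnight at 37° C., 5% CO2, then exposed to compound at 10000 down to 1.5 nM (nine concentrations) for 72 h (RS4;11) or 120 h (DOHH2). Viability was read by MTS, 2 h, absorbance at 490/650 nm; IC50 calculated.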

The test system of a further assay is RS4;11 cells. Description: Cell proliferation assay (MTS), RS4;11 cells, 72 h. Type of assay: cell-based. The conditions noted are these: Homo sapiens, RS4-11, 72 h. Put shortly: as §1

Usually IC50 stands for the concentration at which inhibition is half-maximal. A lower IC50 goes with greater potency. On to `CC1(C)CCC(CN2CCN(c3ccc(C(=O)NS(=O)(=O)c4cc5c(c([N+](=O)[O-])c4)N[C@H](CN4CCCCC4)CO5)c(Oc4cnc5[nH]ccc5c4)c3)CC2)=C(c2ccc(Cl)cc2)C1` [Example 2-84, (R)-2-((1H-pyrrolo[2,3-b]pyridin-5-yl)oxy)-4-(4-((4′-chloro-5,5-dimethyl-3,4,5,6-tetra-hydro-[1,1′-biphenyl]-2-yl)methyl)piperazin-1-yl)-N-((5-nitro-3-(piperidin-1-ylmethyl)-3,4-dihydro-2H-benzo[b][1,4]oxazin-7-yl)sulfonyl)benzamide], for which the results for the IC50 in the assay with DOHH2 cells and in the assay with RS4;11 cells were 82 nM and 26 nM, respectively.
`COC(=O)NCC[C@@H]1COc2cc(S(=O)(=O)NC(=O)c3ccc(N4CCN(CC5=C(c6ccc(Cl)cc6)CC(C)(C)CC5)CC4)cc3Oc3cnc4[nH]ccc4c3)cc([N+](=O)[O-])c2N1` [Example 2-63, methyl (R)-(2-(7-(N-(2-((1H-pyrrolo[2,3-b]pyridin-5-yl)oxy)-4-(4-((4′-chloro-5,5-dimethyl-3,4,5,6-tetrahydro-[1,1′-biphenyl]-2-yl)methyl)piperazin-1-yl)benzoyl)sulfamoyl)-5-nitro-3,4-dihydro-2H-benzo[b][1,4]oxazin-3-yl)ethyl)carbamate]: the half-inhibitory concentration (IC50) came out at 64 nM with DOHH2 cells and 12 nM in the assay on RS4;11 cells.
For `CC1(C)CCC(CN2CCN(c3ccc(C(=O)NS(=O)(=O)c4cc5c(c([N+](=O)[O-])c4)N[C@H](CCN4CCOCC4)CS5)c(Oc4cnc5[nH]ccc5c4)c3)CC2)=C(c2ccc(Cl)cc2)C1` [Example 3-2, (R)-2-((1H-pyrrolo[2,3-b]pyridin-5-yl)oxy)-4-(4-((4′-chloro-5,5-dimethyl-3,4,5,6-tetrahydro-[1,1′-biphenyl]-2-yl)methyl)piperazin-1-yl)-N-((3-(2-morpholinoethyl)-5-nitro-3,4-dihydro-2H-benzo[b][1,4]thiazin-7-yl)sulfonyl)benzamide], the figures for the IC50 in the assay on DOHH2 cells and in the assay with RS4;11 cells were 13 nM and 3 nM, respectively.
In the case of `C[C@H]1CN(CC[C@@H]2COc3cc(S(=O)(=O)NC(=O)c4ccc(N5CCN(CC6=C(c7ccc(Cl)cc7)CC(C)(C)CC6)CC5)cc4Oc4cnc5[nH]ccc5c4)cc([N+](=O)[O-])c3N2)CCN1C` [Example 2-37, 2-((1H-pyrrolo[2,3-b]pyridin-5-yl)oxy)-4-(4-((4′-chloro-5,5-dimethyl-3,4,5,6-tetrahydro-[1,1′-biphenyl]-2-yl)methyl)piperazin-1-yl)-N-(((R)-3-(2-((S)-3,4-dimethylpiperazin-1-yl)ethyl)-5-nitro-3,4-dihydro-2H-benzo [b][1,4]oxazin-7-yl)sulfonyl)benzamide], the half-inhibitory concentration (IC50) is 25 nM in the assay with DOHH2 cells and 1 nM in the assay on RS4;11 cells.
For `CC1(C)CCC(CN2CCN(c3ccc(C(=O)NS(=O)(=O)c4cc5c(c([N+](=O)[O-])c4)N[C@@H](c4ccc(S(C)(=O)=O)cc4)CO5)c(Oc4cnc5[nH]ccc5c4)c3)CC2)=C(c2ccc(Cl)cc2)C1` [Example 2-168, (S)-2-((1H-pyrrolo[2,3-b]pyridin-5-yl)oxy)-4-(4-((4′-chloro-5,5-dimethyl-3,4,5,6-tetra-hydro-[1,1′-biphenyl]-2-yl)methyl)piperazin-1-yl)-N-((3-(4-(methylsulfonyl)phenyl)-5-nitro-3,4-dihydro-2H-benzo[b][1,4]oxazin-7-yl)sulfonyl)benzamide] the same measures were 32 nM and 33 nM.
For `COC(=O)N1CCC(C[C@@H]2COc3cc(S(=O)(=O)NC(=O)c4ccc(N5CCN(CC6=C(c7ccc(Cl)cc7)CC(C)(C)CC6)CC5)cc4Oc4cnc5[nH]ccc5c4)cc([N+](=O)[O-])c3N2)CC1` [Example 2-202, methyl (R)-4-((7-(N-(2-((1H-pyrrolo[2,3-b]pyridin-5-yl)oxy)-4-(4-((4′-chloro-5,5-dimethyl-3,4,5,6-tetrahydro-[1,1′-biphenyl]-2-yl)methyl)piperazin-1-yl)benzoyl)sulfamoyl)-5-nitro-3,4-dihydro-2H-benzo[b][1,4]oxazin-3-yl)methyl)piperidine-1-carboxylate], the IC50 in the assay on DOHH2 cells came out at 63 nM; in the assay on RS4;11 cells, 36 nM.
Regarding `CC1(C)CCC(CN2CCN(c3ccc(C(=O)NS(=O)(=O)c4cc5c(c([N+](=O)[O-])c4)N[C@H](COC4CCOCC4)CO5)c(Oc4cnc5[nH]ccc5c4)c3)CC2)=C(c2ccc(Cl)cc2)C1` [Example 2-184, (R)-2-((1H-pyrrolo[2,3-b]pyridin-5-yl)oxy)-4-(4-((4′-chloro-5,5-dimethyl-3,4,5,6-tetra-hydro-[1,1′-biphenyl]-2-yl)methyl)piperazin-1-yl)-N-((5-nitro-3-(((tetrahydro-2H-pyran-4-yl)oxy)methyl)-3,4-dihydro-2H-benzo [b][1,4]oxazin-7-yl)sulfonyl)benzamide], the figures for the IC50 in the assay with DOHH2 cells and in the assay on RS4;11 cells were 11 nM and 3 nM, respectively.
For the compound `COCC[C@@H]1COc2cc(S(=O)(=O)NC(=O)c3ccc(N4CCN(CC5=C(c6ccc(Cl)cc6)CC(C)(C)CC5)CC4)cc3Oc3cnc4[nH]ccc4c3)cc([N+](=O)[O-])c2N1` [Example 2-65, (R)-2-((1H-pyrrolo[2,3-b]pyridin-5-yl)oxy)-4-(4-((4′-chloro-5,5-dimethyl-3,4,5,6-tetra-hydro-[1,1′-biphenyl]-2-yl)methyl)piperazin-1-yl)-N-((3-(2-methoxyethyl)-5-nitro-3,4-dihydro-2H-benzo[b][1,4]oxazin-7-yl)sulfonyl)benzamide], the values for the IC50 with DOHH2 cells and with RS4;11 cells were 14 nM and 20 nM, respectively.
For `CC1(C)CCC(CN2CCN(c3ccc(C(=O)NS(=O)(=O)c4cc5c(c([N+](=O)[O-])c4)N[C@@H](CCO)CO5)c(Oc4cnc5[nH]ccc5c4)c3)CC2)=C(c2ccc(Cl)cc2)C1` [Example 2-13, (S)-2-((1H-pyrrolo[2,3-b]pyridin-5-yl)oxy)-4-(4-((4′-chloro-5,5-dimethyl-3,4,5,6-tetra-hydro-[1,1′-biphenyl]-2-yl)methyl)piperazin-1-yl)-N-((3-(2-hydroxyethyl)-5-nitro-3,4-dihydro-2H-benzo[b][1,4]oxazin-7-yl)sulfonyl)benzamide] the same measures were 33 nM and 9 nM.
`CC1(C)CCC(c2ccc(Cl)cc2)=C(CN2CCN(c3ccc(C(=O)NS(=O)(=O)c4cc5c(c([N+](=O)[O-])c4)N[C@H](CO[C@H]4CC[C@H](O)CC4)CO5)c(Oc4cnc5[nH]ccc5c4)c3)CC2)C1` [Example 2-243, 2-((1H-pyrrolo[2,3-b]pyridin-5-yl)oxy)-4-(4-((4′-chloro-4,4-dimethyl-3,4,5,6-tetrahydro-[1,1′-biphenyl]-2-yl)methyl)piperazin-1-yl)-N-(((R)-3-((((1r,4R)-4-hydroxycyclo-hexyl)oxy)methyl)-5-nitro-3,4-dihydro-2H-benzo[b][1,4]oxazin-7-yl)sulfonyl)benzamide]: the IC50 with DOHH2 cells is 1 nM; in the assay on RS4;11 cells, 9 nM.
For `CC1(C)CCC(CN2CCN(c3ccc(C(=O)NS(=O)(=O)c4cc5c(c([N+](=O)[O-])c4)N[C@@H](CO)C5)c(Oc4cnc5[nH]ccc5c4)c3)CC2)=C(c2ccc(Cl)cc2)C1` [Example 1-11, (R)-2-((1H-pyrrolo[2,3-b]pyridin-5-yl)oxy)-4-(4-((4′-chloro-5,5-dimethyl-3,4,5,6-tetra-hydro-[1,1′-biphenyl]-2-yl)methyl)piperazin-1-yl)-N-((2-(hydroxymethyl)-7-nitroindolin-5-yl)sulfonyl)benzamide], the IC50 with DOHH2 cells was 154 nM; with RS4;11 cells, 69 nM.
